As a reminder, the Kd is the free concentration of one partner at which half of the binding sites on the other are occupied at equilibrium, for simple one-to-one binding. The low end stands for higher affinity, the high end for lower affinity.

Numbering of substitutions follows the chain as printed.

This is an account of results in paper PMC5780493, “Epsin and Sla2 form assemblies through phospholipid interfaces” (Nature Communications, 2018).

The target in assay [1] is T1, ANTHSla2 (C. thermophilum), ANTHCh (Thermochaetoides thermophila, UniProt G0S106).
T1 construct: gene CTHT_0011900; ANTH domain; E. coli, N-terminal His6 tag cut with TEV
T1 sequence (G0S106 entry or part of it): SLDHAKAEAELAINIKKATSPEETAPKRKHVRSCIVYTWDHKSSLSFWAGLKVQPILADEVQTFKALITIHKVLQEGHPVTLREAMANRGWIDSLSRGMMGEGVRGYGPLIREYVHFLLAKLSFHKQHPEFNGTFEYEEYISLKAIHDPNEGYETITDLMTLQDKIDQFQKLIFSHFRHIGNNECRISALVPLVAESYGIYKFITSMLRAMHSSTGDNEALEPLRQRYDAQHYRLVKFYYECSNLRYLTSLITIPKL
The assay is described as follows: native MS titration, corrected for unspecific binding. Conditions: ammonium acetate 300 mM, 1 mM DTT, pH 8.0; 10 uM protein, 60 uM PIP2; two sites.

Assay [2] addresses T2, ENTH1 (Ent1 ENTH domain, S. cerevisiae) (Saccharomyces cerevisiae, UniProt Q12518, T104E).
T2 construct: ENTH domain (N-terminal); purified recombinant
T2 sequence (Q12518 1-154 T104E): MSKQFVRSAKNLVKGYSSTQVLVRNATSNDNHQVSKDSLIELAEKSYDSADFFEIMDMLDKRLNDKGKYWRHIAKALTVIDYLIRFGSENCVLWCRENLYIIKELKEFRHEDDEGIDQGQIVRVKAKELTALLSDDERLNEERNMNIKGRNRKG
The assay can be described thus: native MS. The class given is binding. The following applies: ammonium acetate, 1 mM DTT, pH 8.0; 10 uM protein, 60 uM PIP2.

Assay [3] concerns the target T3, ENTH2 (Ent2 ENTH domain, S. cerevisiae) (Saccharomyces cerevisiae, UniProt Q05785).
T3 construct: ENTH domain (N-terminal); purified recombinant; two domains sandwich one PIP2 in the crystal
T3 sequence (Q05785 1-156): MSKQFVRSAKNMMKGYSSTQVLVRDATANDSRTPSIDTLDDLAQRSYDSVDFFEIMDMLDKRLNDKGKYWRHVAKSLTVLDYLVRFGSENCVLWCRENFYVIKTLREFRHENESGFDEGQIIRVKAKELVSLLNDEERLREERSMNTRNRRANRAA
The assay can be described thus: native MS titration, corrected for unspecific binding. The following applies: ammonium acetate 300 mM, 1 mM DTT, pH 8.0; 10 uM protein, 60 uM PIP2; two sites, positive cooperativity.

The target of assay [4] is T4, ENTH1 (Ent1 ENTH domain, S. cerevisiae) (Saccharomyces cerevisiae, UniProt Q12518).
T4 construct: ENTH domain (N-terminal); purified recombinant
T4 sequence (Q12518 1-154): T2 sequence (Q12518 1-154 T104E) with E104T
Described as above. The following applies: ammonium acetate 300 mM, 1 mM DTT, pH 8.0; 10 uM protein, 60 uM PIP2; two sites, positive cooperativity.

Assay [5] addresses T5, ANTHSla2 (S. cerevisiae) (Saccharomyces cerevisiae, UniProt P33338).
T5 construct: gene SLA2; ANTH domain (N-terminal); purified recombinant
T5 sequence (P33338 1-360 limits assumed): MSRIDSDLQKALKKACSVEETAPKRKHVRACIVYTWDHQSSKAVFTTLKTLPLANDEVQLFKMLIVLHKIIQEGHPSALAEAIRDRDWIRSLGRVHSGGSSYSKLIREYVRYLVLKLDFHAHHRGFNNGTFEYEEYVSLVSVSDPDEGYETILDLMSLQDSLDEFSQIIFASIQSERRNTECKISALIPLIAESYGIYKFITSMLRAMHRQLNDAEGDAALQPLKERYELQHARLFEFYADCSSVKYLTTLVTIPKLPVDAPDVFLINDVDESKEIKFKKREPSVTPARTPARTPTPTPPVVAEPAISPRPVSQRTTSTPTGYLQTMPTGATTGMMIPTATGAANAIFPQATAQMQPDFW
Described as above. Conditions: ammonium acetate 300 mM, 1 mM DTT, pH 8.0; 10 uM protein, 60 uM PIP2; two sites, positive cooperativity.

For assay [6], the target named is T6, CALM ANTH domain (Homo sapiens, UniProt Q13492).
T6 construct: gene PICALM; ANTH domain; E. coli, N-terminal His6 tag cut with TEV
T6 sequence (Q13492 1-289 limits assumed): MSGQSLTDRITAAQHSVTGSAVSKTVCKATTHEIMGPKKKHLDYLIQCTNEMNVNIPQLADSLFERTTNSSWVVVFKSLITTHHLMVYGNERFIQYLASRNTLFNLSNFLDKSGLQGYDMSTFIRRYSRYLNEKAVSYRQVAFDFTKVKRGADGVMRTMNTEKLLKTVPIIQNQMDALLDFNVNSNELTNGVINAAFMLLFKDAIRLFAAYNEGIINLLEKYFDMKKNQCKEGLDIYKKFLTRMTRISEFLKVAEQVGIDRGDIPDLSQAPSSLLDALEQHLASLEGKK
The description is as above. Conditions: ammonium acetate 300 mM, 1 mM DTT, pH 8.0; 10 uM protein, 60 uM PIP2; two sites, not cooperative.

Assay [7] has as its target T7, human epsin-1 ENTH/Hip1R ANTH complex (Homo sapiens, UniProt O75146+Q9Y6I3).
T7 construct: gene EPN1; EPN1 aa 1-158 (extra Gly after Met) and Hip1R aa 1-300; His-GST tags cut with TEV; 6:0 to 8:8, mainly 6:6
T7 sequence (Q9Y6I3 1-158): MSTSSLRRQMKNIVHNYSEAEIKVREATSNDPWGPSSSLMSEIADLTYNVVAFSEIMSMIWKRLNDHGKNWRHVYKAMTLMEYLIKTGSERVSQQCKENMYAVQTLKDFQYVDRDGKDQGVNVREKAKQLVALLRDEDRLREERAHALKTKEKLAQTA
T7 sequence (O75146 1-300): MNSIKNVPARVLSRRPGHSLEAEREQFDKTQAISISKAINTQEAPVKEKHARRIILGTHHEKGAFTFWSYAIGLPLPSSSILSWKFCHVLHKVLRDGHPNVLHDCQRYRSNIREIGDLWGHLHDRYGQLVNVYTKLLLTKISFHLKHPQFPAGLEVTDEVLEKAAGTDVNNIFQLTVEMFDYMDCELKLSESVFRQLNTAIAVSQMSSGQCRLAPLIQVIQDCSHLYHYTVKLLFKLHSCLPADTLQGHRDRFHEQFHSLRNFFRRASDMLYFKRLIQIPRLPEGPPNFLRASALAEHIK
The assay is described as follows: native MS of assembled complex. The class given is binding. The following applies: ammonium acetate 300 mM, 1 mM DTT, pH 8.0; 10 uM ENTH, 10 uM ANTH, 60 uM PIP2; stoichiometry.

Assay [8] addresses T5, ANTHSla2 (S. cerevisiae). The assay is described as follows: native MS titration, corrected for unspecific binding. The following applies: ammonium acetate 300 mM, 1 mM DTT, pH 8.0; 10 uM protein, 60 uM PIP2; second site (canonical site removed).
For assay [9], the target named is T8, ENTH (epsin ENTH domain, C. thermophilum) (Thermochaetoides thermophila, UniProt G0SAK2).
T8 construct: ENTH domain; E. coli, N-terminal His6 tag cut with TEV
T8 sequence (G0SAK2 with tags, fused parts or gaps): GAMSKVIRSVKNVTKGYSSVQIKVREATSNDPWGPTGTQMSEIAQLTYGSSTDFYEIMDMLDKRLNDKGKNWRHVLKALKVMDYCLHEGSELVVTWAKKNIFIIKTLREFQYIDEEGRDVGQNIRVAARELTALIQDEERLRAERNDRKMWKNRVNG
The assay is described as above. Conditions: ammonium acetate 300 mM, 1 mM DTT, pH 8.0; 10 uM protein, 60 uM PIP2; two sites, positive cooperativity.

The target in assay [10] is T3, ENTH2 (Ent2 ENTH domain, S. cerevisiae). The assay is described as follows: X-ray crystal structure, […] A. The class given is binding. The following applies: 0.1 M MES pH 6.5, 1.45 M ammonium sulfate; canonical phosphoinositide pocket, dimer interface.
For assay [11], the target named is T9, human epsin-1 ENTH (EPN1) (Homo sapiens, UniProt Q9Y6I3).
T9 construct: ENTH domain aa 1-158, extra Gly after start Met; E. coli His-GST fusion, tag cut with TEV; hexamer with PIP2
T9 sequence (Q9Y6I3 1-158): T7 sequence (Q9Y6I3 1-158)
The assay is described as follows: native MS; SAXS. It is filed as binding. Conditions: hexamer formation with PIP2; SAXS in 20 mM Tris-HCl pH 8.0, 250 mM NaCl, 0.2 mM PIP2.

Assay [12] addresses T10, Epsin (Ent1) ENTH (Saccharomyces cerevisiae, UniProt Q12518).
T10 chain: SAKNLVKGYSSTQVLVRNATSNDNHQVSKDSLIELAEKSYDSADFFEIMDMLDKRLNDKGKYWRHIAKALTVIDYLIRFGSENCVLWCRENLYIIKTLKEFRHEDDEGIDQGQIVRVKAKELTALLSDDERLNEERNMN
The assay is described as follows: ITC. (Isothermal titration calorimetry measures the heat released or taken up as one component is titrated into another.)

As to `CCCCCCCC(=O)OC[C@H](COP(=O)(O)O[C@@H]1[C@H](O)[C@H](O)[C@@H](OP(=O)(O)O)[C@H](OP(=O)(O)O)[C@H]1O)OC(=O)CCCCCCC` [PIP2], the “KD,1 / KD,2 (macroscopic)” value in assay [1] is “several ANTH domains, showing two PIP2 binding sites for all wild-type proteins”; in [3], “ENTH1 and ENTH2) from S. cerevisiae”; in [4], “ENTH1 and ENTH2) from S. cerevisiae”; in [5], “PIP2 dissociation constants are higher for Sla2 ANTH domains than for ENTH domains”; in assay [6] it was “macroscopic dissociation constants for CALM suggest higher affinity for the first PIP2-binding site”; in [9] it was “homologous epsin from C. thermophilum bind up to two PIP2 molecules per domain”. The “native MS” value in [2] was “Thr104Glu mutant of ENTH1 from S. cerevisiae shows a reduction of PIP2 binding”. Besides, the “native MS of assembled complex” value in assay [7] was “human epsin-1 ENTH domain with human Hip1R ANTH domain and PIP2”. Besides, the dissociation constant in assay [8] is listed as 300 ± 70 µM. For the same molecule, the “X-ray crystal structure, 3.35 A” value in [10] is listed as “The structure shows two ENTH2 domains sandwiched around one PIP2 molecule”. In addition, the “native MS; SAXS” value in [11] was “A minimum of six PIP2 molecules is required for human ENTH hexamer formation”.

B1: Sla2 ANTH (protein)
chain: MSRIDSDLQKALKKACSVEETAPKRKHVRACIVYTWDHQSSKAVFTTLKTLPLANDEVQLFKMLIVLHKIIQEGHPSALAEAIRDRDWIRSLGRVHSGGSSYSKLIREYVRYLVLKLDFHAHHRGFNNGTFEYEEYVSLVSVSDPDEGYETILDLMSLQDSLDEFSQIIFASIQSERRNTECKISALIPLIAESYGIYKFITSMLRAMHRQLNDAEGDAALQPLKERYELQHARLFEFYADCSSVKYLTTLVTIPKLPVDAPDVFLINDVDESKEIKFKKREPSVT
modifications: PIP2
Molecule B1 had a dissociation constant Kd in assay [12] of 450 nM.
